Reference: the NIST ThermoML archive (doi:10.1021/je500881x)
± gives the expanded uncertainty stated by the source.

Experiment: refractive index (Na D-line) (dimensionless); wn = mass fraction of the nth substance listed
Conditions: 288.15 K, 101 kPa, Liquid, Standard Abbe refractometry

refractive index (w1 = 0.4704)	refractive index (w1 = 0.5794)	SMILES
1.4196 ± 0.0004		[Br-].[Na+] [sodium bromide] + O
	1.4892 ± 0.0004	[Br-].[Br-].[Ca+2] [calcium bromide] + O
